O=c1c2ccccc2sc2ccc(Cl)cc12
Conditions | solubility (mole fraction)
in 1,2-dichloroethane, 291.55 K | 0.0108
in 1,2-dichloroethane, 293.05 K | 0.0114
in 1,2-dichloroethane, 294.95 K | 0.0121
in 1,2-dichloroethane, 297.05 K | 0.0131
in 1,2-dichloroethane, 299.15 K | 0.0139
in 1,2-dichloroethane, 301.25 K | 0.015
in 1,2-dichloroethane, 306.25 K | 0.0173
in 1,2-dichloroethane, 311.35 K | 0.0195
in 1,2-dichloroethane, 316.35 K | 0.022
in 1,2-dichloroethane, 321.45 K | 0.0247
in 1,2-dichloroethane, 326.75 K | 0.0275
in 1,2-dichloroethane, 331.55 K | 0.0307
in 1,4-dioxane, 290.35 K | 0.00155
in 1,4-dioxane, 295.45 K | 0.00263
in 1,4-dioxane, 300.45 K | 0.00398
in 1,4-dioxane, 305.55 K | 0.00552
in 1,4-dioxane, 310.45 K | 0.00703
in 1,4-dioxane, 315.55 K | 0.00882
in 1,4-dioxane, 320.45 K | 0.0105
in 1,4-dioxane, 326.35 K | 0.0128
in 1,4-dioxane, 331.15 K | 0.0145
in 2-butanone, 292.15 K | 0.00488
in 2-butanone, 297.05 K | 0.00587
in 2-butanone, 301.95 K | 0.00695
in 2-butanone, 306.65 K | 0.00834
in 2-butanone, 311.25 K | 0.0101
in 2-butanone, 316.15 K | 0.0119
in 2-butanone, 321.25 K | 0.0145
in 2-butanone, 326.55 K | 0.017
in 2-butanone, 331.55 K | 0.0208
in 2-butanone, 335.95 K | 0.024
in THF, 291.85 K | 0.00658
in THF, 296.95 K | 0.00767
in THF, 302.15 K | 0.00869
in THF, 307.25 K | 0.00967
in THF, 312.25 K | 0.0106
in THF, 317.25 K | 0.0113
in THF, 322.25 K | 0.0118
in THF, 327.55 K | 0.0124
in THF, 332.85 K | 0.0127
in acetone, 289.15 K | 0.00244
in acetone, 294.75 K | 0.00278
in acetone, 299.15 K | 0.00306
in acetone, 303.65 K | 0.00335
in acetone, 309.25 K | 0.00381
in acetone, 313.35 K | 0.00425
in acetone, 319.15 K | 0.00498
in acetone, 323.35 K | 0.00579
in acetone, 329.25 K | 0.00692
in acetonitrile, 289.15 K | 0.000623
in acetonitrile, 294.35 K | 0.000768
in acetonitrile, 299.45 K | 0.00093
in acetonitrile, 305.15 K | 0.00114
in acetonitrile, 309.85 K | 0.00133
in acetonitrile, 315.15 K | 0.0016
in acetonitrile, 319.75 K | 0.0019
in acetonitrile, 324.35 K | 0.00226
in acetonitrile, 329.15 K | 0.00265
in ethanol, 287.55 K | 0.000567
in ethanol, 293.15 K | 0.000679
in ethanol, 298.15 K | 0.000795
in ethanol, 303.15 K | 0.000943
in ethanol, 308.35 K | 0.00122
in ethanol, 313.35 K | 0.0015
in ethanol, 318.15 K | 0.0019
in ethanol, 322.15 K | 0.00229
in ethanol, 327.65 K | 0.00296
in ethyl acetate, 289.15 K | 0.00367
in ethyl acetate, 293.15 K | 0.00419
in ethyl acetate, 298.25 K | 0.00502
in ethyl acetate, 303.45 K | 0.00588
in ethyl acetate, 308.25 K | 0.00683
in ethyl acetate, 313.35 K | 0.00786
in ethyl acetate, 318.45 K | 0.00935
in ethyl acetate, 324.65 K | 0.0112
in ethyl acetate, 330.15 K | 0.0129
in isopropanol, 290.25 K | 0.000547
in isopropanol, 295.15 K | 0.000647
in isopropanol, 300.55 K | 0.000757
in isopropanol, 304.75 K | 0.000906
in isopropanol, 310.25 K | 0.0011
in isopropanol, 314.95 K | 0.00137
in isopropanol, 320.35 K | 0.00179
in isopropanol, 325.65 K | 0.00225
in isopropanol, 331.15 K | 0.00292
in methanol, 292.15 K | 0.000192
in methanol, 297.05 K | 0.000236
in methanol, 301.95 K | 0.000279
in methanol, 306.65 K | 0.00036
in methanol, 311.25 K | 0.000414
in methanol, 316.15 K | 0.000535
in methanol, 321.25 K | 0.000665
in methanol, 326.55 K | 0.000878
in methanol, 331.55 K | 0.00112
in methanol, 335.95 K | 0.00134
in n-propanol, 290.65 K | 0.000647
in n-propanol, 295.25 K | 0.000769
in n-propanol, 300.15 K | 0.000896
in n-propanol, 305.55 K | 0.00106
in n-propanol, 310.65 K | 0.00129
in n-propanol, 315.55 K | 0.00156
in n-propanol, 320.65 K | 0.0019
in n-propanol, 325.55 K | 0.0023
in n-propanol, 331.15 K | 0.00277
in toluene, 289.65 K | 0.00915
in toluene, 295.05 K | 0.0112
in toluene, 300.15 K | 0.0138
in toluene, 305.25 K | 0.0164
in toluene, 310.25 K | 0.0193
in toluene, 315.35 K | 0.023
in toluene, 320.35 K | 0.0276
in toluene, 325.25 K | 0.0321
in toluene, 330.25 K | 0.039
